# Assays:
# [1] = system: IL-2 stimulated pSTAT5 in Tall-1 T cells (JAK3); test: Cellular JAK3 potency assay: inhibition of IL-2 stimulated pSTAT5 in Tall-1 T cells; format: cell-based; settings: IL-2 300 ng/ml, pSTAT5 AlphaLisa, Tall-1 human T cell line; read-out: Tall-1 (pIC50) (converted)
# Summary of the method: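 Human Tall-1 T cells (45,000/well) preincubated with compound 1 h at 37 °C, then stimulated with IL-2 (final 300 ng/ml) for 30 min. Lysates read for pSTAT5 (Tyr694/699) by AlphaLISA luminescence. IC50 from signal-versus-concentration curves, reported as pIC50 (mean±SD).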
# JAK1 = JAK1 (Homo sapiens (Human), UniProt P23458); test: Biochemical JAK and Tyk2 kinase assays (LanthaScreen): JAK1; settings: 1 h pre-incubation, ATP at Km; pIC50 converted to pKi by Cheng-Prusoff
# Summary of the method: (§1)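 Recombinant GST-tagged JAK enzymes with GFP-tagged STAT1 peptide substrate in 50 mM HEPES pH 7.5, 10 mM MgCl2, 1 mM EGTA, 0.01% Brij-35. Compounds pre-incubated 1 h at ambient temperature before ATP start; 1 h reaction, then EDTA plus Tb-anti-pSTAT1 (pTyr701) TR-FRET read. IC50 from 4-parameter fit, converted to pKi by Cheng-Prusoff.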
# [2] = Colon and plasma mouse pharmacokinetics; format: in vivo; settings: mouse; ratio of colon AUC to plasma AUC; male Balb/c mice, 10 mg/kg PO
# Method: Assay 6: Colon and Plasma Mouse Pharmacokinetics
# 6 male Balb/c mice were administered 10 mg/kg of compound in 1% HPMC+0.1% Tween-80 by PO administration. At 0.5, 2 and 6 hours after dose administration, animals were anesthetized, and terminal blood samples were collected by cardiac puncture, followed by collection of colon contents and colon tissue.
# Blood samples were collected into K2EDTA and stored on wet ice until processed to plasma by centrifugation (12,000 rpm at 4° C.). Plasma samples were transferred to cluster tubes and placed on dry ice prior to freezer storage. The colon contents from each animal were collected at each terminal blood collection time point. The colon tissues were flushed with saline and patted dry. The colon and colon content tissues were homogenized using sterile water containing 0.1% formic acid 9:1 (water:tissue, v/w). The homogenized tissues and colon contents were transferred to cluster tubes and placed on dry ice prior to freezer storage. All samples were analyzed using LC/MS/MS against analytical standards.
# The composite pharmacokinetic parameters of the compounds were determined by non-compartmental analysis using Phoenix WinNonlin Version 6 (Certara, St. Louis, Mo.) and using mean values from 2 animals/time point. For plasma concentrations below the quantification limit (BQL), the lowest concentration measurable or the BLOQ (below limit of quantification) was used.
# A colon to plasma ratio was determined as the ratio of the colon AUC to the plasma AUC.
# Caco-2 cell monolayers = test: Caco-2 permeation assay; format: in vitro ADME, human; settings: 5 μM, A to B, + Verapamil 25 μM, 120 minutes
# Excerpt: Assay 5: Caco-2 Permeation Assay
# JAK3 = JAK3 (Homo sapiens (Human), UniProt P52333); test: Biochemical JAK and Tyk2 kinase assays (LanthaScreen): JAK3; settings: for Ki: 1 h pre-incubation, ATP at Km, pIC50 converted to pKi by Cheng-Prusoff, read-out: JAK 3 (pKi) (converted); for JAK3 (pKi)-JAK1 (pKi): difference of pKi values, selectivity JAK3 over JAK1
# Summary of the method: as §1
# Tyk2 = Tyk2 (Homo sapiens (Human), UniProt P29597); test: Biochemical JAK and Tyk2 kinase assays (LanthaScreen): Tyk2; settings: 1 h pre-incubation, ATP at Km; pIC50 converted to pKi by Cheng-Prusoff
# Summary of the method: as §1
# JAK2 = JAK2 (Homo sapiens (Human), UniProt O60674); test: Biochemical JAK and Tyk2 kinase assays (LanthaScreen): JAK2; settings: 1 h pre-incubation, ATP at Km; pIC50 converted to pKi by Cheng-Prusoff
# Summary of the method: as §1
# Sequence of JAK3 (P52333 whole entry): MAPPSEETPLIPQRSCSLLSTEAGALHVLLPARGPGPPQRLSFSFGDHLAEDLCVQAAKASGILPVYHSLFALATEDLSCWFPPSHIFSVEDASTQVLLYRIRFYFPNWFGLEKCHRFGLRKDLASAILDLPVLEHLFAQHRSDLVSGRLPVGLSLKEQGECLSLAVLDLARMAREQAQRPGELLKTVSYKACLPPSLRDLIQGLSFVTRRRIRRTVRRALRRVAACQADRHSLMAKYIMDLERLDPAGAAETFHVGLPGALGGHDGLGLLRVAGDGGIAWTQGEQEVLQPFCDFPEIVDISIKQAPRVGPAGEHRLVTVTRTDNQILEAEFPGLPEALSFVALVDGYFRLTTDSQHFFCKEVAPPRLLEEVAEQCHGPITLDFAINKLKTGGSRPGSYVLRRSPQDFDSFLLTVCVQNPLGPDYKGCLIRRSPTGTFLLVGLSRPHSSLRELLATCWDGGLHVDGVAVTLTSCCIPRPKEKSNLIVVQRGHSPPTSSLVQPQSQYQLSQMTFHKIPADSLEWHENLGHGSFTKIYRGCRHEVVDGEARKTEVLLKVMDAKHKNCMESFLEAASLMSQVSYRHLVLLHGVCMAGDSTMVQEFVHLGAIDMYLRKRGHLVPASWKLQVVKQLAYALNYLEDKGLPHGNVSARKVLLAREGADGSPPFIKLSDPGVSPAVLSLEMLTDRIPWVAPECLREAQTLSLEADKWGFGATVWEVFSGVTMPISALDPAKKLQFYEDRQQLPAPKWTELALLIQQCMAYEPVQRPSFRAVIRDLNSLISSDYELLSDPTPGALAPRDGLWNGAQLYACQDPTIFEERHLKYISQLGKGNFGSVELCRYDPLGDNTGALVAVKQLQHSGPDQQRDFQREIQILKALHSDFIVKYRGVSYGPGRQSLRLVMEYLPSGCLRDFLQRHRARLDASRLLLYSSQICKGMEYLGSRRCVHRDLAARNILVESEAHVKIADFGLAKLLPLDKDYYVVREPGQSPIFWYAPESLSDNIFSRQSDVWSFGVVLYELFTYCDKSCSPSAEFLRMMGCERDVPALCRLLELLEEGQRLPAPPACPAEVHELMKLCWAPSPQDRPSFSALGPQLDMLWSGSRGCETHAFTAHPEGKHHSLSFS
# Sequence of Tyk2 (P29597 whole entry): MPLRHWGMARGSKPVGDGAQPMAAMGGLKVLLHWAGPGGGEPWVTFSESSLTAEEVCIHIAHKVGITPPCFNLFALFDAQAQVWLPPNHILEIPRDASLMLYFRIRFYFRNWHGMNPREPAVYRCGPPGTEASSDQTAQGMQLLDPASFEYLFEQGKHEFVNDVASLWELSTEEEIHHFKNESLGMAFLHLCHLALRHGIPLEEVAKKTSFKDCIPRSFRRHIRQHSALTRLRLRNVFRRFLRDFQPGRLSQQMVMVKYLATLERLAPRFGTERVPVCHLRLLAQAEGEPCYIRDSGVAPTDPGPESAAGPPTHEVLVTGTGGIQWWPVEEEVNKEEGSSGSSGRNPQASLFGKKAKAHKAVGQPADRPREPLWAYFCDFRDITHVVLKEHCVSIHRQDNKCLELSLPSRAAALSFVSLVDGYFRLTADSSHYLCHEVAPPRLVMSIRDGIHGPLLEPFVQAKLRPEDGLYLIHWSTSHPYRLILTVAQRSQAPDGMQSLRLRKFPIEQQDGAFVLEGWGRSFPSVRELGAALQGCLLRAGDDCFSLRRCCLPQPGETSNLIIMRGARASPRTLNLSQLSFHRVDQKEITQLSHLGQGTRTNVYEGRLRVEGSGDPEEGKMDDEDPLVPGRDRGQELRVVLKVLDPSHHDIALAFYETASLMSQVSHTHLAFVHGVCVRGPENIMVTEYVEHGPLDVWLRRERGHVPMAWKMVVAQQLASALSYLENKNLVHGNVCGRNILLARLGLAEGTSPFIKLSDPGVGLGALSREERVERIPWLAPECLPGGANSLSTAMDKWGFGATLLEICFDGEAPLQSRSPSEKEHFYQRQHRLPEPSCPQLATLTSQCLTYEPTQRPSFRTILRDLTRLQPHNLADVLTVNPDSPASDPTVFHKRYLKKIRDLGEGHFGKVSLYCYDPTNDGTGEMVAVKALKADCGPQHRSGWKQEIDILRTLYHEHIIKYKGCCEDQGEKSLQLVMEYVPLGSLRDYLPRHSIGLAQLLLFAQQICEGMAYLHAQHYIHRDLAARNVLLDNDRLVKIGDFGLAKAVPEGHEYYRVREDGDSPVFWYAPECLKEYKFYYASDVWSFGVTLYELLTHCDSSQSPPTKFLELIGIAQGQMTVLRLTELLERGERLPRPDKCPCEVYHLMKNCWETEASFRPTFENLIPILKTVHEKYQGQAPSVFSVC
# Sequence of JAK1 (P23458 whole entry): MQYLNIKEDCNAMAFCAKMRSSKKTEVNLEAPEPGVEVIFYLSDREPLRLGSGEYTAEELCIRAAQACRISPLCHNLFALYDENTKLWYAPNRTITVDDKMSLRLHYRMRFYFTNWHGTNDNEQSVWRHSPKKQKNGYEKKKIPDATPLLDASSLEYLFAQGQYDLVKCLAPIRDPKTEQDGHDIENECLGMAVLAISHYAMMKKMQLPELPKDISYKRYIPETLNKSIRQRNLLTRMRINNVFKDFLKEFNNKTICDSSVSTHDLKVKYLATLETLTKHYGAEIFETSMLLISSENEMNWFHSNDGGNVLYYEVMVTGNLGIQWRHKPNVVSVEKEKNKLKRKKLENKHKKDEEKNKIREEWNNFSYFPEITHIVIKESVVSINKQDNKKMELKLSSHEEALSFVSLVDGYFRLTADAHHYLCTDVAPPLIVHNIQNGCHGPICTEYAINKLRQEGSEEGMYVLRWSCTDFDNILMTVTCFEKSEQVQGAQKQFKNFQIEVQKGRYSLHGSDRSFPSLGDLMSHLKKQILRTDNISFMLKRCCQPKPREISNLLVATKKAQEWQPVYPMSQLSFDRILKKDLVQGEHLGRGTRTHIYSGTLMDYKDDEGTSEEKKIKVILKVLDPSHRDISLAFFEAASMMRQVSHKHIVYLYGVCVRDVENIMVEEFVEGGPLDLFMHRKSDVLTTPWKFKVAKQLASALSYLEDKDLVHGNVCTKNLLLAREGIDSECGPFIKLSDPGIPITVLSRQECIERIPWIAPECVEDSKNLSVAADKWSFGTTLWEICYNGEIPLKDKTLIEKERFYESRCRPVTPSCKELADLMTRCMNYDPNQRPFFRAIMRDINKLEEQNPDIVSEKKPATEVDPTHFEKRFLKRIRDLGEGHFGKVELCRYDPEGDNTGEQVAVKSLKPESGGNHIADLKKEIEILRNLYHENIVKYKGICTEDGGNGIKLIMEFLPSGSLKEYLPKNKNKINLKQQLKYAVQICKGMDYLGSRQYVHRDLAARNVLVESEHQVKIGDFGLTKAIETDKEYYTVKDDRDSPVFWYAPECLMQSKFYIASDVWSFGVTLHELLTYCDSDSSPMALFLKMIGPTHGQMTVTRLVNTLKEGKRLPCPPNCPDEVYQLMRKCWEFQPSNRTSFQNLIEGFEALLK
# Sequence of JAK2 (O60674 whole entry): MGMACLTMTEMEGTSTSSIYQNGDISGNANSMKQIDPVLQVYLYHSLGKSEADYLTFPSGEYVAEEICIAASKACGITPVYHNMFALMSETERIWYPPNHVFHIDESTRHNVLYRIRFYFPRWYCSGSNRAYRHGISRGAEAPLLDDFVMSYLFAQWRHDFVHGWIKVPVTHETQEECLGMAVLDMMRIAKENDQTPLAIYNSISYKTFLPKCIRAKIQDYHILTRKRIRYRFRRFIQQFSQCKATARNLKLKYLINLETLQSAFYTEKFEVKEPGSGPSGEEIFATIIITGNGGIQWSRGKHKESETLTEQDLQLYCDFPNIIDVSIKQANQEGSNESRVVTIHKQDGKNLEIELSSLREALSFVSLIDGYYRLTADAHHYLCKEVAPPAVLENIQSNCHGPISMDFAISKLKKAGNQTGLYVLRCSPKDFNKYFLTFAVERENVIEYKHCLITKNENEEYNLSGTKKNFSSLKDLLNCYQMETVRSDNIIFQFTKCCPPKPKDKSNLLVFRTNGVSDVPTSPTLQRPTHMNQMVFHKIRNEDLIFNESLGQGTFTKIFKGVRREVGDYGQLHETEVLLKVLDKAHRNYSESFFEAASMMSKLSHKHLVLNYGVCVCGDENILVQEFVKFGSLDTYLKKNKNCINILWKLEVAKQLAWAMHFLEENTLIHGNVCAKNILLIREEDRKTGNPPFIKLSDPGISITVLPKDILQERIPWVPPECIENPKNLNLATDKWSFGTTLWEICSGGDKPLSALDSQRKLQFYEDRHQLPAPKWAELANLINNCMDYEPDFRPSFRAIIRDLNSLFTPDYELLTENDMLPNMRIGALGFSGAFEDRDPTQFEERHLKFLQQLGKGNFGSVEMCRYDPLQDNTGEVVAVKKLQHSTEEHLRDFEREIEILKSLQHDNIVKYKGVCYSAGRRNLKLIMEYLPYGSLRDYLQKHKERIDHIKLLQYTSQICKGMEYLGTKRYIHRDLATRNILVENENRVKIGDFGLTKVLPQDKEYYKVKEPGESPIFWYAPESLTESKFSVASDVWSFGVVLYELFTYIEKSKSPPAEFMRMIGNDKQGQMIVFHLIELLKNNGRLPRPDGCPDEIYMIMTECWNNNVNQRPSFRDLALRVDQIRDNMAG
Structure (SMILES),IC50 [1],JAK 1 (pKi) (JAK1),Kp [2],Caco Kp 10^−6 cm/sec (Caco-2 cell monolayers),Ki (JAK3),JAK3 (pKi)-JAK1 (pKi) (JAK3),Tyk 2 (pKi) (Tyk2),JAK 2 (pKi) (JAK2)
"C=CC(=O)N1CC(COc2cc(-c3cc(F)c(O)cc3CC)cn3cncc23)C1 [Example 13, 1-(3-(((6-(2-ethyl-5-fluoro-4-hydroxyphenyl)imidazo[1,5-a]pyridin-8-yl)oxy)methyl)azetidin-1-yl)prop-2-en-1-one]",≤ 31.6 nM,E (E represents a pKi value of 7 or below (Ki of 100 nM or above)),> 200,A (A represents a value below 5×10^−6 cm/sec),0.1 to 1 nM,A (A represents a value of 3 or above),E (E represents a pKi value of 7 or below (Ki of 100 nM or above)),E (E represents a pKi value of 7 or below (Ki of 100 nM or above))
"C=CC(=O)N1CC(COc2cc(-c3ccc(O)c(Cl)c3)cn3cncc23)C1 [Example 12, 1-(3-(((6-(3-chloro-4-hydroxyphenyl)imidazo[1,5-a]pyridin-8-yl)oxy)methyl)azetidin-1-yl)prop-2-en-1-one]",31.6 to 200 nM,E (E represents a pKi value of 7 or below (Ki of 100 nM or above)),> 200,A (A represents a value below 5×10^−6 cm/sec),0.1 to 1 nM,A (A represents a value of 3 or above),E (E represents a pKi value of 7 or below (Ki of 100 nM or above)),E (E represents a pKi value of 7 or below (Ki of 100 nM or above))

# Reference: patent publication US10851102B2, “Imidazole and triazole containing bicyclic compounds as JAK inhibitors” (THERAVANCE BIOPHARMA R&D IP, LLC, priority 2019, dated 2020)
